We go through 52 compounds from PubChem BioAssay AID179 (DTP/NCI, 2004).

Structures are written as SMILES. Several values for one entry are separate records, joined by “and”; a condition that tells them apart may be missing. Equal values may be shown once. Activity calls are given as the source filed them.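 Rule for the calls: active = compounds giving half or more protection of infected cells from virus-caused growth loss, again on retest; inactive = the rest.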 Where a SMILES comes first, the peptide text is derived from it. Bounds are passed on as bounds.

The subject of this assay is CEM cells HIV-1 protection, formazan growth assay. The experiment in a line: NCI AIDS Antiviral Assay. Conditions: for IC50: measured here: growth of uninfected CEM cells. In a few lines:
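Protection of CEM cells against HIV-1 was scored from cell growth (soluble formazan) across five concentrations, with parallel uninfected cells. Lack of protection may reflect toxicity.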

Broadly, the EC50 is the concentration needed to bring the measured effect to its halfway point. Broadly, the IC50 is the midpoint of a concentration-inhibition curve. Low values mean greater potency, high ones weaker potency. Take `NC(N)=N/N=C/c1c(-c2ccc(Cl)cc2)nc2sc(Cl)cn12`: the EC50 was greater than 20 µM and the IC50 turned out to be 1.07 µM. As to `CN=C(N)c1ncn(C2OC(CO)C(O)C2O)n1` (stereo not drawn), the outcome was inactive. `C=CCn1c(=O)c2ccccc2[n+]2c(C)c(C(=O)OCC)sc12`: the concentration for a half-maximal effect (EC50) was 132 µM and the concentration for half-maximal inhibition (IC50) is greater than 200 µM.

Regarding `NC(=O)O/N=C/c1ccccn1`, the EC50 is greater than 200 µM and the IC50 was greater than 200 µM.

`COc1ccc(N2C(=O)C3c4[nH]c5ccccc5c4C4c5ccccc5CC4C3C2=O)cc1` (stereo not drawn): the EC50 was greater than 200 µM and the IC50 was greater than 200 µM. As for `CNc1c(Br)cc(/C=C2\C=Cc3ccccc32)cc1Br`, the EC50 is greater than 9.55 µM and the IC50 was greater than 9.55 µM. As to `COC(=O)C(=O)C1CSC2=C(CS(=O)(=O)c3ccccc32)C1=O` (stereo not drawn), the EC50 was greater than 200 µM and the IC50 is greater than 200 µM. Regarding `CN(C)N(CCO)CCO`, the EC50 was greater than 200 µM and the IC50 was greater than 200 µM.

In the case of `N#Cc1c(Nc2nc3ccccc3s2)c2ccccc2n2c1nc1ccccc12`, the EC50 was greater than 200 µM and the concentration for half-maximal inhibition (IC50) is greater than 200 µM. `Nc1ccn(C2SC(CO)CC2F)c(=O)n1` (stereo not drawn): the EC50 is greater than 25.1 µM and the IC50 is greater than 25.1 µM. With `COc1ccc(CN2CCCN(/N=C/c3c4c(O)c5c(O)c(C)c6c(c5c3O)C(=O)C(C)(O/C=C/C(OC)C(C)C(OC(C)=O)C(C)C(O)C(C)C(O)C(C)/C=C/C=C(C)C(=O)N4)O6)CC2)cc1` (stereo not drawn), the EC50 was greater than 200 µM and the IC50 is 12 µM. The like results for `CC(C)(C)C1CC[C@H]2c3c([nH]c4ccc(Br)cc34)[C@H]3C(=O)N(c4ccccc4)C(=O)[C@H]3[C@H]2C1` (stereo partly drawn) were, in that order, greater than 7.24 µM and greater than 7.24 µM. Turning to `CC(C)=CC(=O)O[C@@H]1CC(C)(C)CC2C3=CCC4[C@]56CC[C@](O)(OC5)C(C)(C)C6CC[C@@]4(C)C3(C)CC[C@]21C(=O)O` (stereo partly drawn), the EC50 is greater than 200 µM and the IC50 was 10.2 µM. Turning to `CCC12CCC[C@@]13C=C[C@H](O3)C(C)(C)C2=O` (stereo partly drawn), the outcome was inactive.

`COC1=CC(=O)C=C(CO)C1=O`: the EC50 was greater than 562 µM and the IC50 came to 10 µM. The like results for `NC1=NNC2(C(N)=N1)c1ccccc1-c1ccccc12` were, in that order, greater than 200 µM and 51.3 µM. The like results for `O=[As](O)(O)c1ccc(OCCO)cc1` were, in that order, greater than 200 µM and greater than 200 µM. As for `Cc1cc(S(=O)(=O)Nc2nc3cscc3c(=O)n2N)c(S)cc1Cl`, the concentration giving a half-maximal response (EC50) was 33.9 µM and the concentration for half-maximal inhibition (IC50) worked out at 132 µM. As for `O=C(NC(=Nc1ccccc1)SCSC(=Nc1ccccc1)NC(=O)c1ccccc1F)c1ccccc1F`, the EC50 is greater than 200 µM and the IC50 is 28.8 µM. The matching figures for `ClCCCN1CCN(CCCl)CC1`: greater than 832 µM and 21.4 µM. On to `COc1cccc(N2C(=O)C3CC(CC(C)(C)C)c4c([nH]c5ccccc45)C3C2=O)c1` (stereo not drawn), for which the EC50 was greater than 200 µM and the IC50 was found to be 42.7 µM. `Clc1ccc(CN2COc3c(cc(Cl)c4cccnc34)C2)cc1Cl`: the EC50 was greater than 200 µM and the half-maximal inhibitory concentration (IC50) came to 1.07 µM.

As to `COc1ccc(Br)c2c1CC(C(=O)O)CC2` (stereo not drawn), the EC50 was greater than 457 µM and the IC50 was 234 µM. Consider `COc1ccccc1NC(=O)C(=O)C(c1cnc2ccc([N+](=O)[O-])cc2n1)[N+](=O)[O-]` (stereo not drawn), for which the EC50 was greater than 316 µM and the IC50 was 89.1 µM. Take `Cc1ccc(-c2nc3scc(C)n3n2)cc1`: the EC50 was greater than 200 µM and the IC50 was found to be 182 µM. On to `Clc1ccc2noc(-c3ccccc3)c2c1`, for which the EC50 is greater than 22.9 µM and the IC50 is greater than 22.9 µM. With `OC(CC(CC(O)(C(F)(F)Cl)C(F)(F)Cl)=NNc1ccccc1)(C(F)(F)Cl)C(F)(F)Cl`, the EC50 was greater than 200 µM and the IC50 turned out to be 2.14 µM. Consider `COc1ccc(/C=C(\C)C=O)cc1`, for which the EC50 is greater than 204 µM and the IC50 is greater than 204 µM. With `CC(C)C(=O)CC(c1ccc(Br)cc1)N1N=C(C(C)C)CC1c1ccc(Br)cc1` (stereo not drawn), the EC50 is greater than 10 µM and the IC50 is greater than 10 µM. Turning to `O=C(O)c1ccc(CS(=O)(=O)c2ccccc2C(=O)O)c([N+](=O)[O-])c1`, the EC50 was greater than 692 µM and the 50% inhibitory concentration (IC50) was greater than 692 µM. On to `CCOC(=O)/N=c1/nc2ccn(C)c2c(NC(=O)OCC)s1`, for which the EC50 was greater than 209 µM and the IC50 is greater than 209 µM. As to `CCOC(=O)CC(c1ccccc1)C(C)(C(=O)OCC)C(=O)OCC` (stereo not drawn), the result was inactive. With `CN1CC(O)C(C(=O)NC23CC4CC(CC(C4)C2)C3)C1` (stereo not drawn), the EC50 was greater than 324 µM and the IC50 was determined as 234 µM. With `COc1cc(N=Nc2ccc(S(=O)(=O)O)cc2)c(C)cc1N=Nc1cc(S(=O)(=O)O)c(NC(=O)c2ccc(N)cc2)cc1NC(C)=O`, the EC50 is 13.2 µM and the IC50 is greater than 200 µM.

For the compound `Cc1cn(C2CC(ON3C(=O)c4ccccc4C3=O)C(CO)O2)c(=O)[nH]c1=O` (stereo not drawn), the half-maximal effective concentration (EC50) was 26.9 µM and > 200 µM; the IC50 was greater than 200 µM. Take `NC(=O)C1CCCN1C(=O)C(N)Cc1ccccc1` (stereo not drawn) (H-Phe-Pro-NH2; configuration not given here): the EC50 is greater than 200 µM and the half-maximal inhibitory concentration (IC50) was greater than 200 µM. Consider `CN1C2=CC=CC=CC2=[N+](C)C1C(=C=[N-])C#N` (stereo not drawn), for which the EC50 is greater than 363 µM and the IC50 was 245 µM.

As to `CC12SC(C)(c3c[se]cc31)C1C(=O)N(c3ccccc3)C(=O)C12` (stereo not drawn), the result was inactive. On to `Cc1ccc(S(=O)(=O)OCC23CCC(C4CC42)C2CC23)cc1` (stereo not drawn), for which the EC50 was greater than 100 µM and the IC50 came to 77.6 µM.

With `CC(C)(C)OC(=O)N(CCCCNC(=O)OCc1ccccc1)CCCNC(=O)OCc1ccccc1`, the EC50 was greater than 200 µM and the IC50 was 4.47 µM. Regarding `C(=C/[PH+](c1ccccc1)c1ccccc1)/[PH+](c1ccccc1)c1ccccc1.O=C([O-])C(F)(F)F.[C-]#[O+].[C-]#[O+].[C-]#[O+].[Mn]`, the EC50 is greater than 8.13 µM and the IC50 came to 0.589 µM. Turning to `Nc1nc2c(c(=O)[nH]1)Cc1nc(N)[nH]c(=O)c1C2`, the EC50 was greater than 24.5 µM and the IC50 was greater than 24.5 µM. As to `COc1cc(C2C(C(=O)Nc3ccccc3)=C(C)NC(C)=C2C(=O)Nc2ccccc2)ccc1O`, the result was inactive. As to `NC(=O)C(=O)n1ncc(Cl)c(Cl)c1=O`, the EC50 was greater than 30.9 µM and the IC50 was greater than 30.9 µM. On to `O=c1nc2sc3ccccc3c(=O)n2[nH]1`, for which the EC50 is greater than 204 µM and the IC50 came out at 77.6 µM. In the case of `CCOC(=O)C(=O)Nc1c(C)cccc1CC`, the EC50 was greater than 776 µM and the IC50 was greater than 776 µM.

`Cc1ccc(C(=O)c2ccccc2C(=O)O)cc1C` yielded an EC50 greater than 200 µM and an IC50 greater than 200 µM. `Fc1ccc(N2C(=S)SC(=Nc3ccccc3)C2=Nc2ccccc2)cc1`: the EC50 is greater than 200 µM and the IC50 was 23.4 µM. Turning to `CN=C(c1ccc(NC(=O)c2ccc(C(=O)Nc3ccc(C(=NC)N4CCOCC4)cc3)c(Cl)c2)cc1)N1CCOCC1`, the EC50 was greater than 200 µM and the IC50 was greater than 200 µM.

In the case of `CCc1cc2c(c3c1CCC3=O)CC1(Cc3ccc(C)cc3C1)C2` (stereo not drawn), the EC50 is greater than 200 µM and the 50% inhibitory concentration (IC50) was determined as 135 µM.

With `COc1ccc(-c2nc(-c3cc4ccccc4oc3=O)cs2)cc1`, the EC50 is greater than 100 µM and the IC50 is greater than 100 µM.

In the case of `NC1=NN(c2ccccc2)C(=O)C1C(=O)C(=O)Nc1ccccc1` (stereo not drawn), the result was inactive.
